Experimental findings from patent publication US20230277698A1, “SILICON-CONTAINING LIGAND COMPOUNDS” (Technische Universität München, priority 2020, published 2023) are described below.

Data set [1] has as its target T1, human serum albumin (HSA) (Homo sapiens, UniProt P02768). Briefly: HSA binding by radio inversed affinity chromatography (RIAC). Type of data set: in vitro ADME. The note with it: 177Lu-labelled; Superdex 75 Increase 10/300 GL, 700 μM HSA in PBS, 0.8 mL/min. The method, then:
A gel filtration column Superdex 75 Increase 10/300 GL (GE Healthcare, Uppsala, Sweden) was beforehand calibrated following the producer's recommendations with a commercially available gel filtration calibration kit (GE Healthcare, Buckinghamshire, UK) comprising conalbumin (MW: 75 kDa), ovalbumin (44 kDa), carbonic anhydrase (29 kDa), ribonuclease A (13.7 kDa) and aprotinin (6.5 kDa) as reference proteins of known molecular weight. RIAC experiments were conducted using a constant flow rate of 0.8 mL/min at rt. A solution of HSA in PBS at physiological concentration (700 μM) was used as the mobile phase. PSMA ligands were labelled as described with molar activities of 10-20 GBq/μmol. Probes of 1.0 MBq of the radioligand were injected directly from the labelling solution. HSA binding was expressed as an apparent molecular weight MW calculated from the retention time of the radioligand using the determined calibration curve.
The following table summarizes the underlying data. MW: molecular weight. tR: experimentally determined retention time. V: elution volume. Kav: partition coefficient.
RIAC, in an inversed way, comprises ligand samples (radiolabeled PSMA ligands) and a protein (HSA) containing mobile phase. Ligand-specific retention is caused by interaction of the ligand probe and HSA in the mobile phase. Unbound species, due to a molecular weight beneath the molecular cut off of the gel filtration column, are maximally retained while bound species are eluted in accordance to the higher molecular weight of the ligand-HSA-complex (MWHSA: 66.47 kDa). Experiments show a single radiopeak indicating a dynamic process of formation and dissociation of the ligand-HSA-complex throughout the passage through the column bed. Accordingly, the absolute retention time is the result of the ligand's mean time of abidance at HSA which is directly defined by the ligand's binding kinetics and affinity toward HSA. For evaluation, experimentally determined retention times tR are first converted into elution volumes Ve by multiplying with the flow rate and thereafter converted into partition coefficients Kav following the equation
where V0 is the column void volume (8.027 mL) and Vc is the geometric column volume (24 mL). Using the equation given by the trend line plot of the column calibration
the apparent molecular weight MW is calculated as
FIG. 7 and the table below show the results HSA-binding of lutetium-complexed PSMA-ligands and reference compounds determined by RIAC on a Superdex 75 Increase 10/300 GL column 700 μM HSA in PBS as solvent using a constant flow rate of 0.8 mL/min (plotted data, extracted from FIG. 8).
FIG. 8 illustrates the determination of HSA binding via radio inverse affinity chromatography (RIAC). Correlation of apparent molecular weight (MW) in Dalton (Da) and retention time of ^177Lu-labeled samples, determined on a Superdex 75 Increase 10/300 GL with 700 μM HSA in PBS as solvent using a constant flow rate of 0.8 mL/min.

The target of data set [2] is T1, human serum albumin (HSA). Description: HSA binding by high performance affinity chromatography (HiPAC). The note with it: lutetium-complexed; Chiralpak HSA column. The data set is classed as in vitro ADME. Also on record: purchased Daicel, Tokyo, Japan H13H-2433. How it is done:
HSA binding of the PSMA-addressing ligands was determined according to a previously published procedure via HPLC (Valko, K.; Nunhuck, S.; Bevan, C.; Abraham, M. H.; Reynolds, D. P., Fast gradient HPLC method to determine compounds binding to human serum albumin. Relationships with octanol/water and immobilized artificial membrane lipophilicity. J Pharm Sci. 2003, 92, 2236-2248). A Chiralpak HSA column (50×3 mm, 5 μm, H13H-2433, Daicel, Tokyo, Japan) was used at a constant flow rate of 0.5 mL/min at rt. Mobile phase A was a freshly prepared 50 mM aqueous solution of NH4OAc (pH 6.9) and mobile phase B was isopropanol (HPLC grade, VWR). The applied gradient for all experiments was 100% A (0 to 3 min), followed by 80% A (3 to 40 min). Prior to the experiment, the column was calibrated using nine reference substances with a HSA binding, known from literature, in the range of 13 to 99% (Valko, K.; Nunhuck, S.; Bevan, C.; Abraham, M. H.; Reynolds, D. P., J Pharm Sci. 2003, 92, 2236-2248; Yamazaki, K.; Kanaoka, M., Computational prediction of the plasma protein-binding percent of diverse pharmaceutical compounds. J Pharm Sci. 2004, 93, 1480-1494). All substances, including the examined PSMA ligands, were dissolved in a 1:1 mixture (v/v) of isopropanol and a 50 mM aqueous solution of NH4OAc (pH 6.9) with a final concentration of 0.5 mg/mL. Non-linear regression was established with the OriginPro 2016G software (Northampton, United States).
FIG. 1 is an exemplary sigmoidal plot, showing the correlation between human serum albumin (HSA) binding of selected reference substances and retention time (tR). The underlying values of HSA binding also shown in the corresponding table and were obtained from literature (Valko, K.; Nunhuck, S.; Bevan, C.; Abraham, M. H.; Reynolds, D. P., J Pharm Sci. 2003, 92, 2236-2248; Yamazaki, K.; Kanaoka, M., J Pharm Sci. 2004, 93, 1480-1494). Log tR: logarithmic value of experimentally determined retention time. Log K HSA: logarithmic value of HSA binding values.

T1 sequence (P02768 25-609): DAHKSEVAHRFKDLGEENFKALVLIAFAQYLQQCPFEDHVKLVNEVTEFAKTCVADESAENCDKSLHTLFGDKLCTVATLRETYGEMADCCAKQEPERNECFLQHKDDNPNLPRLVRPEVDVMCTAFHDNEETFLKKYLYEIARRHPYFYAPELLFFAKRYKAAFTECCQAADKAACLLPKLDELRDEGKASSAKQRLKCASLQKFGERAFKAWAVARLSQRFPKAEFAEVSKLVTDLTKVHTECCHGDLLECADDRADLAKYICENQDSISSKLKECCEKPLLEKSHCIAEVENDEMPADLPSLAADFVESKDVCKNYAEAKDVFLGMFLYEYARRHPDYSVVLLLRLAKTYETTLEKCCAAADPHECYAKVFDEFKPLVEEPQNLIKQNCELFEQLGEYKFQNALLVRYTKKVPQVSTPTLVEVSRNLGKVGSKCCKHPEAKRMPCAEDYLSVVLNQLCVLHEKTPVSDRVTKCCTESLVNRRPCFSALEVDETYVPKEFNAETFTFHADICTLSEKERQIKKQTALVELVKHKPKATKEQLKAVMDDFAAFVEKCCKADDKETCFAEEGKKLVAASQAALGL

Regarding `CC(C)(C)[Si](O)(c1ccc(C(=O)NC[C@@H](NC(=O)CC[C@@H](C(=O)O)N2CCN(CC(=O)O)CCN(CC(=O)O)CCN(CC(=O)O)CC2)C(=O)N[C@H](CCCCNC(=O)CCC(=O)NCCC[C@@H](NC(=O)CC[C@H](NC(=O)N[C@@H](CCC(=O)O)C(=O)O)C(=O)O)C(=O)O)C(=O)O)cc1)C(C)(C)C` [7.3-SiOH], the “HSA-binding RIAC (apparent molecular weight)” value (“HSA-binding RIAC” for short) in data set [1] turned out to be 10.1 kDa. Further, in data set [2], the “HSA-binding HiPAC” value is listed as 96.4%.
The corresponding values for `CC(C)(C)[Si](O)(c1ccc(C(=O)NC[C@@H](NC(=O)CC[C@@H](C(=O)O)N2CCN(CC(=O)O)CCN(CC(=O)O)CCN(CC(=O)O)CC2)C(=O)N[C@H](CO)C(=O)NCCC(=O)NCCC(=O)NCCC[C@@H](NC(=O)CC[C@H](NC(=O)N[C@@H](CCC(=O)O)C(=O)O)C(=O)O)C(=O)O)cc1)C(C)(C)C` [C007-SiOH] are 8.0 kDa and 86.3%.
Taken in the same sequence, the figures for `CC(C)(C)[Si](O)(c1ccc(C(=O)NC[C@@H](NC(=O)CC[C@@H](C(=O)O)N2CCN(CC(=O)O)CCN(CC(=O)O)CCN(CC(=O)O)CC2)C(=O)NCC(=O)N[C@@H](CCCCNC(=O)CCC(=O)NCCC[C@@H](NC(=O)CC[C@H](NC(=O)N[C@@H](CCC(=O)O)C(=O)O)C(=O)O)C(=O)O)C(=O)O)cc1)C(C)(C)C` [E102-SiOH] were 9.3 kDa and 95.1%.
Taken in the same sequence, the figures for `CC(C)(C)[Si](O)(c1ccc(C(=O)NC[C@@H](NC(=O)CCCCCNC(=O)CCCNC(=O)CC[C@@H](NC(=O)CCC(NC(=O)N[C@@H](CCC(=O)O)C(=O)O)C(=O)O)C(=O)O)C(=O)NCC(=O)N[C@@H](CCCCNC(=O)CC[C@@H](C(=O)O)N2CCN(CC(=O)O)CCN(CC(=O)O)CCN(CC(=O)O)CC2)C(=O)O)cc1)C(C)(C)C` (stereo partly drawn) [E104-SiOH] were 7.8 kDa and 85.8%.
As to `CC(C)(C)[Si](O)(c1ccc(C(=O)N[C@H](CCC(=O)NC[C@@H](NC(=O)CC[C@@H](C(=O)O)N2CCN(CC(=O)O)CCN(CC(=O)O)CCN(CC(=O)O)CC2)C(=O)NCCCCCC(=O)NCCC[C@@H](NC(=O)CC[C@H](NC(=O)N[C@@H](CCC(=O)O)C(=O)O)C(=O)O)C(=O)O)C(=O)O)cc1)C(C)(C)C` [P105-SiOH], in data set [1], the “HSA-binding RIAC” value is listed as 10.4 kDa. For the same compound, the “HSA-binding HiPAC” value in data set [2] was 97.8%.
Regarding `CC(C)(C)[Si](O)(c1ccc(C[N+](C)(C)CC(=O)NCCC[C@@H](NC(=O)CC[C@@H](C(=O)O)N2CCN(CC(=O)O)CCN(CC(=O)O)CCN(CC(=O)O)CC2)C(=O)NCCCCCC(=O)NCCC[C@@H](NC(=O)CC[C@H](NC(=O)N[C@@H](CCC(=O)O)C(=O)O)C(=O)O)C(=O)O)cc1)C(C)(C)C` [P110-SiOH], the “HSA-binding RIAC” value in data set [1] came to 5.2 kDa. Besides, in data set [2], the “HSA-binding HiPAC” value came to 31.3%.
The corresponding values for `O=C(O)CC[C@H](NC(=O)N[C@@H](CCCCNC(=O)[C@H](Cc1ccc2ccccc2c1)NC(=O)[C@H]1CC[C@H](CNC(=O)CN2CCN(CC(=O)O)CCN(CC(=O)O)CCN(CC(=O)O)CC2)CC1)C(=O)O)C(=O)O` [PSMA-617, reference compound] are 13.7 kDa and 74.7%.
Taken in the same sequence, the figures for `CC(C)(C)[Si](F)(c1ccc(C(=O)NC[C@@H](NC(=O)CC[C@@H](C(=O)O)N2CCN(CC(=O)O)CCN(CC(=O)O)CCN(CC(=O)O)CC2)C(=O)N[C@H](CCCCNC(=O)CCC(=O)NCCC[C@@H](NC(=O)CC[C@H](NC(=O)N[C@@H](CCC(=O)O)C(=O)O)C(=O)O)C(=O)O)C(=O)O)cc1)C(C)(C)C` [rhPSMA-7.3, reference compound] were 30.2 kDa and 98.5%.
The corresponding values for `CC(C)(C)[Si](F)(c1ccc(C(=O)NC[C@@H](NC(=O)CN2CCN(CC(=O)O)CCN(CC(=O)O)CCN(CC(=O)O)CC2)C(=O)N[C@H](CCCCNC(=O)CCC(=O)NCCC[C@@H](NC(=O)CC[C@H](NC(=O)N[C@@H](CCC(=O)O)C(=O)O)C(=O)O)C(=O)O)C(=O)O)cc1)C(C)(C)C` [rhPSMA-10, reference compound] are 25.4 kDa and 94.0%.
